Test results published in patent publication US6756371B1, “Phthalazinone derivatives as PDE4 inhibitors” (Altana Pharma AG, priority 1999, dated 2004).

Experiments:
PDE4 = experiment: Inhibition of PDE4 activity (method of Bauer and Schwabe, adapted to microtitre plates); assay type: biochemical
Method: Inhibition f PDE 4 Activity
The activity test was carried out according to the method of Bauer and Schwabe, which was adapted to microtitre plates (Naunyn-Schmiederberg's Arch. Pharmacol. 311, 193-198. 1980). In this test, the PDE reaction is carried out in the first step. In a second step, the resultant 5′-nucleotide is cleaved to the uncharged nucleoside by a snake venom 5′-nucleotidase from Crotalus Atrox. In the third step, the nucleoside is separated from the remaining charged substrate on ion exchange columns. The columns are eluted directly into minivials using 2 ml of 30 mM ammonium formate (pH 6.0), to which a further 2 ml or scintillation fluid is added for counting.
The inhibitory values determined for the compounds according to the invention follow from the following table A, in which the numbers of the compounds correspond to the numbers of the examples.

Row | SMILES | Inhibition of PDE4 activity [measured as −logIC50 (mol/l)] (PDE4) | melting point [°C]
1 | COc1ccc(C2=NN(c3ccc(S(=O)(=O)N4CCOCC4)cc3)C(=O)C3CC=CCC23)c2c1OC(C)(C)C2 (stereo not drawn) [compound 5, (cis)-4-(2,3-Dihydro-2,2-dimethyl-7-methoxybenzofuran-4-yl)-2-[4(N-morpholinosulfonyl)phenyl]-4a,5,8,8a-tetrahydro-2H-phthalazin-1-one] | 9.71 | –
2 | CCOc1ccc(C2=NN(c3ccc(S(=O)(=O)N4CCOCC4)cc3)C(=O)C3CC=CCC23)cc1OCC (stereo not drawn) [compound 4, (cis)-4-(3,4-Diethoxyphenyl)-2-[4-(N-morpholinosulfonyl)phenyl]-4a,5,8,8a-tetrahydro-2H-phthalazin-1-one] | 9.22 | –
3 | CCOc1ccc(C2=NN(c3ccc(C(=O)N4CCSCC4)cc3)C(=O)[C@H]3CC=CC[C@@H]23)cc1OCC (relative stereo) [compound 3, (cis)-4-(3,4-Diethoxyphenyl)-2-[4-(1-thiomorpholin-4-ylcarbonyl)phenyl]-4a,5,8,8a-tetrahydro-2H-phthalazin-1-one] | 7.82 | 104 to 106
4 | COc1ccc(C2=NN(c3ccc(C(=O)N4CCOCC4)cc3)C(=O)C3CC=CCC23)c2c1OC(C)(C)C2 (stereo not drawn) [compound 2, (cis)-4-(2,3-Dihydro-2,2-dimethyl-7-methoxybenzofuran-4-yl)-2-[4-(N-morpholinocarbonyl)-phenyl]-4a,5,8,8a-tetrahydro-2H-phthalazin-1-one] | 8.77 | –
5 | CCOc1ccc(C2=NN(c3ccc(C(=O)N4CCOCC4)cc3)C(=O)C3CC=CCC23)cc1OCC (stereo not drawn) [compound 1, (cis)-4-(3,4-Diethoxyphenyl)-2-[4-(N-morpholinocarbonyl)phenyl]-4a,5,8,8a-tetrahydro-2H-phthalazin-1-one] | 7.99 | 144 to 145
6 | CCOc1ccc(C2=NN(c3ccc(C(=O)N4CCS(=O)(=O)CC4)cc3)C(=O)[C@H]3CC=CC[C@@H]23)cc1OCC (relative stereo) [compound 6, (cis)-4-(3,4-Diethoxyphenyl)-2-[4-(1,1-dioxothiomorpholin-4-ylcarbonyl)phenyl]-4a,5,8,8a-tetrahydro-2H-phthalazin-1-one] | 7.81 | 186 to 187
